Active and inactive are the calls of the source.
Columns and labels:
[1] = molecular target: Muscarinic acetylcholine receptor M3 (Cavia porcellus) (UniProt Q8VH26); conditions: Ileum
[2] = Maximal rate of vascular endothelium-dependent relaxation at the concentration of 10E-5 M/L; 0-10%; conditions: Oryctolagus cuniculus
[3] = Maximal rate of vascular endothelium-dependent relaxation at the concentration of 10E-5 M/L; […]; conditions: Oryctolagus cuniculus
[4] = Maximal rate of vascular endothelium-dependent relaxation at the concentration of 10E-5 M/L; 30-50%; conditions: Oryctolagus cuniculus
[5] = species on record: Rattus norvegicus; assay: Rate of relaxation of Atropine treated rat aorta; type: functional
[6] = Maximal rate of vascular endothelium-dependent relaxation at the concentration of 10E-5 M/L; conditions: Oryctolagus cuniculus
[7] = species on record: Rattus norvegicus; assay: Rate of relaxation of endothelium denuded rat aorta; type: functional
[8] = species on record: Rattus norvegicus; assay: Rate of relaxation of L-NAME treated rat aorta; type: functional
[9] = species on record: Rattus norvegicus; assay: Rate of relaxation of Indomethacin treated rat aorta; type: functional
[10] = species on record: Rattus norvegicus; assay: Rate of relaxation of endothelium intact rat aorta; type: functional
[11] = Maximal rate of vascular endothelium-dependent relaxation at the concentration of 10E-5 M/L; - = no activity; conditions: Oryctolagus cuniculus
[12] = tested on: Oryctolagus cuniculus; assay: Vascular relaxation of rabbit carotid model at 0.1 M/L concentration with 5 mg/kg PPVP; type: functional
[13] = species on record: Oryctolagus cuniculus; assay: Vascular relaxation of rabbit carotid model (high lipid diet) at 0.1 M/L concentration; type: functional

Chain of Muscarinic acetylcholine receptor M3 (Cavia porcellus) (Q8VH26 1-587): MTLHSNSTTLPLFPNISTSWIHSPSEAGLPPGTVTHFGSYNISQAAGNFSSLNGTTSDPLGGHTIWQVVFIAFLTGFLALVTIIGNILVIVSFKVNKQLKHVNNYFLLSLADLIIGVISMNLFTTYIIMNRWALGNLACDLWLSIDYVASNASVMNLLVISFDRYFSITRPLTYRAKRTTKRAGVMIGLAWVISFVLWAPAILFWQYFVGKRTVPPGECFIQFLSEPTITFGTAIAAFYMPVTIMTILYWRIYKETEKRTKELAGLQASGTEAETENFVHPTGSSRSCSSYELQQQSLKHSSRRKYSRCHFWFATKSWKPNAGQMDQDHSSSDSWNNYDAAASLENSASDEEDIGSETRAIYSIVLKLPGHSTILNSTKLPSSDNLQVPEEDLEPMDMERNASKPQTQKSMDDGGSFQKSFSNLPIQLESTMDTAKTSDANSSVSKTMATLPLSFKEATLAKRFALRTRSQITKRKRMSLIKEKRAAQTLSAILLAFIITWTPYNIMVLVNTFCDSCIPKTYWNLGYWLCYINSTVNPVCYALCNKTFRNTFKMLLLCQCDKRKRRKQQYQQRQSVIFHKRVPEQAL

Structure (SMILES) | Contraction [1] | Relaxation [3] [%] | also measured
CN1CCN(C(C#N)c2ccccc2Cl)CC1 (stereo not drawn) | inactive |  | Relaxation [2]: 10%
CN1CCN(C(C#N)c2c(F)cccc2Cl)CC1 (stereo not drawn) | inactive | 30 | 
N#CC(NCc1ccccc1)c1ccc2c(c1)OCO2 (stereo not drawn) | inactive |  | Relaxation [2]: 10%
CN1C2CC=C(C#N)C1CC2 (stereo not drawn) | inactive |  | Relaxation [2]: 10%
O=C(CN1CCOCC1)Nc1c(Cl)cccc1Cl | inactive | 30 | 
CCOP(=O)(OCC)C(c1ccc(O)c(OC)c1[N+](=O)[O-])N1CCN(C)CC1 (stereo not drawn) | inactive |  | Relaxation [2]: 10%
N#CCN1CCOCC1 | inactive |  | Relaxation [4]: 50%
CCOP(=O)(OCC)C(c1ccc(O)c(OC)c1)N1CCOCC1 (stereo not drawn) | inactive | 30 | 
CN1CCN(C(C#N)c2ccccc2F)CC1 (stereo not drawn) | inactive |  | Relaxation [4]: 50%
CN1CCN(Cc2nn[nH]n2)CC1 | inactive | 30 | 
N#CC(c1ccccc1Cl)N1CCOCC1 (stereo not drawn) | inactive |  | Relaxation [4]: 50%
N#CC(c1ccc2c(c1)OCO2)N1CCOCC1 (stereo not drawn) | inactive | 30 | 
CCOP(=O)(OCC)C(c1ccc(O)c(OC)c1)N1CCN(C)CC1 (stereo not drawn) | inactive | 30 | 
N#CCN1CCCCC1 | inactive |  | 
CCOP(=O)(OCC)C(c1cc(OC)c(O)c(OC)c1)N1CCN(c2ccccn2)CC1.Cl (stereo not drawn) | inactive |  | Relaxation [5]: 82.6%; Relaxation [6]: > 50%; Relaxation [7]: 5.7%; Relaxation [8]: 26.2%; Relaxation [9]: 14.2%; Relaxation [10]: 84%
CCOP(=O)(OCC)C(c1ccc(O)c(OC)c1)N1CCN(c2ccccn2)CC1.Cl (stereo not drawn) | inactive |  | Relaxation [5]: 85.7%; Relaxation [6]: > 50%; Relaxation [7]: 13.9%; Relaxation [8]: 28.8%; Relaxation [9]: 23.8%; Relaxation [10]: 81.4%
Cc1ccc(C(C#N)N2CCOCC2)cc1 (stereo not drawn) | inactive | 30 | 
CN1CCN(C(C#N)c2ccco2)CC1 (stereo not drawn) | inactive |  | Relaxation [2]: 10%
N#CC(c1ccc(Cl)c(F)c1)N1CCOCC1 (stereo not drawn) | inactive |  | Relaxation [11]: inactive
CN1CCN(CC(=O)Nc2c(Cl)cccc2Cl)CC1 | inactive |  | Relaxation [2]: 10%
CCN(CC)CCC(=O)OC | inactive |  | Relaxation [11]: inactive
CN1CCN(C(C#N)c2cccs2)CC1 (stereo not drawn) | inactive | 30 | 
CCOC(=O)CN1CCN(C)CC1 | inactive | 30 | 
CCOP(=O)(OCC)C(c1cc([N+](=O)[O-])ccc1O)N1CCOCC1 (stereo not drawn) | inactive | 30 | 
COc1cc(C(C#N)N2CCOCC2)cc(OC)c1OC (stereo not drawn) | inactive |  | Relaxation [4]: 50%
NC(=O)CCN1CCOCC1 | inactive |  | Relaxation [11]: inactive
Cc1cccc(C(C#N)N2CCN(C)CC2)c1 (stereo not drawn) | inactive |  | Relaxation [2]: 10%

Structure (SMILES) | Contraction [1] | Relaxation [3] [%] | also measured
CN1CCN(C(C#N)c2ccc3c(c2)OCO3)CC1 (stereo not drawn) | inactive | 30 | 
COC(=O)C1CN(Cc2ccccc2)CCN1Cc1ccccc1 (stereo not drawn) | inactive | 30 | 
C=CCN1CCN(C)CC1 |  | 30 | 
COC(=O)CCN1CCCCC1 | inactive |  | Relaxation [2]: 10%
COc1cc(C(C#N)N2CCN(C)CC2)cc(OC)c1OC (stereo not drawn) | inactive |  | Relaxation [6]: > 50%
N#CC1(O)CN2CCC1CC2 (stereo not drawn) | inactive |  | Relaxation [11]: inactive
CCOP(=O)(OCC)C(c1ccc(O)cc1)N1CCN(C)CC1 (stereo not drawn) | inactive | 30 | 
CC(=O)OCC[N+](C)(C)C [ACETYLCHOLINE] |  |  | Relaxation [12]: 65.9%; Relaxation [13]: 32.2%
Cc1ccc(C(C#N)N2CCN(C)CC2)cc1 (stereo not drawn) | inactive | 30 | 
COC(=O)CCN1CCN(C)CC1 | inactive |  | Relaxation [11]: inactive
O=C(CCN1CCOCC1)c1ccc([N+](=O)[O-])cc1 | inactive | 30 | 
C#CCN1CCOCC1 | inactive |  | Relaxation [11]: inactive
COC(=O)CCCN1CCOCC1 | inactive |  | Relaxation [11]: inactive
CN1CCN(C(C#N)c2cc3c(cc2Cl)OCO3)CC1 (stereo not drawn) | inactive |  | Relaxation [2]: 10%
N#CC1CC2C(=O)C=CC1N2Cc1ccccc1 (stereo not drawn) | inactive |  | Relaxation [11]: inactive
Cc1ccccc1C(C#N)N1CCN(C)CC1 (stereo not drawn) | inactive |  | Relaxation [2]: 10%
N#CCCN1CCCCC1 | inactive |  | Relaxation [11]: inactive
CN1CCN(C(C#N)c2ccc(Cl)c(F)c2)CC1 (stereo not drawn) | inactive |  | Relaxation [11]: inactive
N#CC(NCc1ccccc1)c1ccco1 (stereo not drawn) | inactive |  | Relaxation [2]: 10%
CN1CCN(CCC#N)CC1 | inactive |  | Relaxation [11]: inactive
CN1CCN(C(C#N)c2cccc(F)c2)CC1 (stereo not drawn) | inactive |  | Relaxation [4]: 50%
Cc1cccc(C(C#N)N2CCOCC2)c1 (stereo not drawn) | inactive | 30 | 
CCOP(=O)(OCC)C(c1ccc(O)cc1)N1CCN(c2ccccn2)CC1 (stereo not drawn) | inactive |  | Relaxation [2]: 10%
COC(=O)[C@@H]1C[C@@H](O)CN1 | inactive | 30 | 
CCOP(=O)(OCC)C(c1cc(Cl)cc(Cl)c1O)N1CCN(c2ccccn2)CC1 (stereo not drawn) | inactive |  | Relaxation [6]: > 50%
CN1CCN(C(C#N)c2ccc(F)cc2)CC1 (stereo not drawn) | inactive |  | Relaxation [4]: 50%
CN1CCN(CC#N)CC1 | inactive |  | Relaxation [4]: 50%

Structure (SMILES) | Contraction [1] | Relaxation [3] [%] | also measured
Cc1ccccc1C(C#N)N1CCOCC1 (stereo not drawn) | inactive | 30 | 
CN1C2CC=C(C(N)=O)C1CC2 (stereo not drawn) | inactive | 30 | 
CCOP(=O)(OCC)C(c1cc(OC)c(O)c(OC)c1)N1CCN(C)CC1 (stereo not drawn) | inactive | 30 | 
N#CC(c1ccc(F)cc1)N1CCOCC1 (stereo not drawn) | inactive | 30 | 
CCOP(=O)(OCC)C(c1ccc(O)c(OC)c1[N+](=O)[O-])N1CCOCC1 (stereo not drawn) | inactive |  | Relaxation [2]: 10%
N#CC(c1cccs1)N1CCOCC1 (stereo not drawn) | inactive |  | Relaxation [2]: 10%
N#CC(c1cccc(F)c1)N1CCOCC1 (stereo not drawn) | inactive |  | Relaxation [4]: 50%
CCOP(=O)(OCC)C(c1cc(Br)cc(Br)c1O)N1CCN(c2ccccn2)CC1 (stereo not drawn) | inactive | 30 | 
CN1CCN(CCC(N)=O)CC1 | inactive |  | Relaxation [11]: inactive
N#CC(c1c(F)cccc1Cl)N1CCOCC1 (stereo not drawn) | inactive |  | Relaxation [2]: 10%
CCOC(=O)CN1CCOCC1 | inactive |  | Relaxation [2]: 10%
N#CC(c1ccccc1F)N1CCOCC1 (stereo not drawn) | inactive | 30 | 
N#CCCN1CCOCC1 | inactive |  | Relaxation [11]: inactive
CNC(=O)CCN1CCOCC1 | inactive |  | Relaxation [11]: inactive
N#CC1CN(Cc2ccccc2)CCN1Cc1ccccc1 (stereo not drawn) | inactive | 30 | 
CNC(=O)CCN1CCCCC1 | inactive |  | Relaxation [11]: inactive
CCOP(=O)(OCC)C(c1cc(OC)c(O)c(OC)c1)N1CCOCC1 (stereo not drawn) | inactive |  | Relaxation [4]: 50%
COC(=O)CCCCN1CCOCC1 | inactive |  | Relaxation [4]: 50%
COc1cc(C(C#N)N2CCN(C)CC2)c([N+](=O)[O-])cc1OC (stereo not drawn) | inactive |  | Relaxation [6]: > 50%
COC(=O)C1CC2C(=O)C=CC1N2Cc1ccccc1 (stereo not drawn) | inactive |  | Relaxation [2]: 10%
CCOP(=O)(OCC)C(c1cc([N+](=O)[O-])ccc1O)N1CCN(C)CC1 (stereo not drawn) | inactive | 30 | 
O=C1CN2CCC1CC2 | inactive |  | Relaxation [11]: inactive
O/N=C1\CN2CCC1CC2 | inactive |  | Relaxation [11]: inactive
CCOP(=O)(OCC)C(c1ccc(O)cc1)N1CCOCC1 (stereo not drawn) | inactive |  | Relaxation [2]: 10%
C#CCN1CCN(C)CC1 | inactive | 30 | 
N#CC(c1ccco1)N1CCOCC1 (stereo not drawn) | inactive |  | Relaxation [2]: 10%
